In patent US5147856A, “Method for inhibiting blood vessel blockage using octapeptide compositions” (Societe de Conseils de Recherches et d'Applications …, priority 1988, dated 1992):
“And” between values parts separate entries of the source, which are not always exact repeats. Equal values may be shown once.

What was measured:
[1] = system: intimal hyperplasia of aorta and iliac arteries; assay: Myointimal hyperplasia in rabbits after balloon angioplasty (Example 3); type: in vivo, rabbit; conditions: for % Intimal hyperplasia: 20 μg/kg twice daily s.c., individual samples; for Percentage of inhibition of myointimal hyperplasia: 20 μg/kg/d
Experimental: Female and Male, white New Zealand rabbits (2.8-3.0 kg) were divided into two groups (A and B). Group A (vehicle control) received subcutaneous injections of physiological saline (0.2 ml) twice daily. […] The animals were treated the day before angioplasty, and until sacrifice about 3 weeks later. The angioplasty was done under general anesthesia with Ketamine and Xylazine. Each animal's left iliac artery and aorta were denuded with an angioplasty catheter (Fogarty). The angioplasty catheter was inserted into the left femoral artery and passed through the vessel to the thoracic aorta. The catheter was then reciprocated three times. The animals were all sacrificed from days 22-24 after angioplasty. The aorta and iliac arteries were fixed in situ via perfusion with formaldehyde under constant perfusion pressure.
Intimal hyperplasia was determined on elastin-stained (Van Giesen) horizontally-cut sections. The sections were obtained from (i) the aorta at the level of the renal artery, (ii) the common iliac artery at the level of bifurcation, and (iii) the external iliac artery just above the inguinal ligament. The area of intimal hyperplasia and total vessel area were determined by morphometry. The percentage of intimal hyperplasia was expressed as follows: [formula]
Single determinations were made on three segments of each aorta and the two iliac arteries of each animal. The percentage of intimal hyperplasia was determined as the mean of the two closest measurements of each vessel.

[2] = system: myointimal cell proliferation in the aortas of rabbits; assay: Rabbit aorta 72 hours after balloon angioplasty: wet weight, protein, DNA/protein, 3-H thymidine incorporation (Example 6); type: in vivo; conditions: for DNA/Protein ratio, in words: FIG. 3; for Rates of cell proliferation by 3-H thymidine incorporation, in words: FIG. 4
Experimental: New Zealand White Rabbits were anesthetised with Rompun (Xylazine) and Ketalar (Ketamine) and a cannula (3F Fogarty) was inserted from the femoral artery. The balloon was inflated at a constant pressure and the aorta was de-endothelialised by angioplasty. The process was repeated three times and the wound site was closed. The animals were sacrificed 72 hours after balloon angioplasty and after removing the adventitia the aorta was cut into fine rings. These rings were incubated in the presence of 3-H thymidine and the radioactivity was determined after processing the tissue. Simultaneous measurements of DNA and protein contents were also made in these tissues.
Eight injections of Angiopeptin were made: on the morning and evening of the day prior to ballooning; two on the day of the procedure; and two on each of the following two days. The total daily dose was 2, 20, or 200 μg/Kg body weight.

[3] = system: myointimal proliferation of the carotid artery; assay: Air-drying injury of the rat carotid artery, intimal/media ratio (Example 2); type: in vivo; conditions: for Intimal/Media Ratio: mean ± SE
Experimental: Male Sprague-Dawley rats, weighing […], obtained from Charles River were kept under controlled lighting conditions and fed rat chow and water ad libitum. Under sodium pentobarbital anesthesia the intima of the right carotid artery was subjected to an air-drying injury described by Fishman et al, Lab Invest., 32, 339 (1975). The procedure causes intimal hyperplasia that largely consists of proliferating intimal smooth muscle cells. In this model approximately 4 cm of the vessel is isolated and drained of blood. Air (20 ml/min) is blown through a 30 gauge needle for 5 min whereafter blood flow is reestablished. The contralateral carotid artery was also exposed but not air-dried. The rats were sacrificed 15 days later.
The experiment consisted of a control group and ten treatment groups. The somatostatin analogs used were hepta- or octapeptides, namely BIM 23014 (Angiopeptin), BIM 23012, BIM 23027, BIM 23030 and BIM 23034. […] The animals were pretreated two days prior to the procedure and for a further five days following the endothelial injury. Two additional groups of animals were added in order to study whether Angiopeptin (20 μg/kg/day and 50 μg/kg/day) administered 30 min prior to the endothelial injury and for a further five days would protect against the myointimal proliferation.
The animals were sacrificed on day 15 following the injury by exsanguination. The vascular system was flushed with normal saline and perfusion-fixed at 80 mmHg with 10% formalin. The carotid arteries were subsequently fixed, embedded and sectioned for light microscopy and morphometric analysis. The maximal intimal/media ratio is the distance from the lumen to the internal elastic lamina and the distance from the internal elastic lamina to the external elastic lamina. The distances were determined in each vessel using a digitizing system attached to a light microscope. The determinations were performed on three different cross sections of the vessel and each section was measured three times. The mean was calculated for each vessel. Differences between the groups were evaluated using Student's unpaired t-test.

[4] = system: growth hormone release; conditions: cited from earlier work
[5] = system: hyperplasia of the right carotid artery; assay: Air-drying injury of the rat right carotid artery, ratio of width of intimal and medial layers (Example 4); type: in vivo; conditions: 50 μg/kg/day s.c. twice a day
Experimental: Angiopeptin was administered s.c. twice a day 50 μg/kg/day to male Sprague-Dawley (Charles River) rats, 250-350 g each. After two days of pre-treatment, a lesion was made on the third day after the morning dose by air-drying the right carotid artery while the rats were under anesthesia (Ketamine-Innovar, i.m.). Treatment was continued on day: 4, 5, 6, and 7. The rats were sacrificed on day 14 following the injury. After in-situ fixation at constant pressure, with 10% formalin, the tissues were prepared to form morphometrics.
Hyperplasia was measured as the ratio of width of intimal and medial layers. For each rat, 3 different histological sections were measured and the morphometrics was done 3 times on each section.

[6] = common iliac artery, female rabbits
[7] = common iliac artery, male rabbits
[8] = external iliac artery, female rabbits

## CC(C)[C@@H]1NC(=O)[C@H](CCCCN)NC(=O)[C@@H](Cc2c[nH]c3ccccc23)NC(=O)[C@H](Cc2ccc(O)cc2)NC(=O)[C@@H](NC(=O)[C@H](N)Cc2ccc3ccccc3c2)CSSC[C@@H](C(=O)N[C@H](C(N)=O)[C@@H](C)O)NC1=O [Angiopeptin, D-Nal-Cys-Tyr-D-Trp-Lys-Val-Cys-Thr-NH2]
[1]; aorta, female rabbits
  % Intimal hyperplasia: 13.0% and 6.4%
  Percentage of inhibition of myointimal hyperplasia: ~43%
[1]; aorta, male rabbits
  % Intimal hyperplasia: 17.0%
  Percentage of inhibition of myointimal hyperplasia: ~32%
[1]; [6]
  % Intimal hyperplasia: 9.3% and 9.5% and 7.7% and 6.5%
  Percentage of inhibition of myointimal hyperplasia: ~33%
[1]; [7]
  % Intimal hyperplasia: 16.0% and 6.4% and 14.0%
  Percentage of inhibition of myointimal hyperplasia: ~39%
[1]; [8]
  % Intimal hyperplasia: 6.6%
  Percentage of inhibition of myointimal hyperplasia: about 41%
[1]; external iliac artery, male rabbits
  Percentage of inhibition of myointimal hyperplasia: ~20%
[2]; 2 μg/kg, FIG. 2
  Total protein content of injured aortas, in words: lowered
[2]; 20 μg/kg body weight
  DNA/Protein ratio, in words: significantly lowered
[2]; 20 μg/kg body wt.
  Rates of cell proliferation by 3-H thymidine incorporation, in words: significantly lower
[2]; 200 μg/kg body wt.
  DNA/Protein ratio, in words: reflected the inhibitory influence
[2]; 200 μg/kg
  Rates of cell proliferation by 3-H thymidine incorporation, in words: still inhibited
[2]; 2, 20, 200 μg/kg body wt. total daily dose, FIG. 1
  Wet weight of aortas, in words: does not seem to influence
[2]; higher doses (20 and 200 μg/kg), FIG. 2
  Levels of total proteins, in words: did not affect
[2]; overall
  Rates of cell proliferation by 3-H thymidine incorporation, in words: significantly inhibited
[3]; 20 μg/kg/day s.c. in two divided doses, from two days prior to injury and five days postinjury, sacrifice day 15
  Intimal/Media Ratio: 1.7 ± 0.2
[3]; 20 μg/kg/day, pretreatment 30 min prior to injury and for a further five days
  Intimal/Media Ratio: 1.6 ± 0.9
[3]; 50 μg/kg/day from 30 min prior to injury and for a further five days
  Inhibition of myointimal proliferation, in words: significantly (p<0.01) inhibited
[3]; 50 μg/kg/day s.c. in two divided doses, from two days prior to injury and five days postinjury, sacrifice day 15
  Intimal/Media Ratio: 1.1 ± 0.2
[3]; 50 μg/kg/day, pretreatment 30 min prior to injury and for a further five days
  Intimal/Media Ratio: 1.0 ± 0.3
[3]; administered from two days prior to injury, at the doses used (20 and 50 μg/kg/day)
  Inhibition of myointimal (smooth muscle cell) proliferation of the carotid artery, in words: inhibited significantly
[3]; high dose 50 μg/kg/day, from two days prior to injury
  Inhibition of myointimal proliferation, in words: effective
[3]; low dose 20 μg/kg/day, from two days prior to injury
  Inhibition of myointimal proliferation, in words: effective
[4]; in vivo
  Inhibition of growth hormone release, in words: less active
[4]; rats, compared to somatostatin 14 (=1)
  Potency for growth hormone suppression in vivo, relative to somatostatin 14: 5
[5]; two days pre-treatment and days 4-7, sacrifice day 14, individual rats
  Hyperplasia: ratio of width of intimal and medial layers: 0.46 ± 0.08 and 0.28 ± 0.03 and 0.52 ± 0.05 and 0.69 ± 0.02
[5]; group mean, N 4
  Hyperplasia: ratio of width of intimal and medial layers, mean: 0.48
